Consider 63 compounds from ChEMBL document CHEMBL1146819, “Synthesis and SAR of 2-arylbenzoxazoles, benzothiazoles and benzimidazoles as inhibitors of lysophosphatidic acid acyltransferase-beta” (Bioorg Med Chem Lett, 2004).

Activity calls are given as the source filed them. A value given as a limit tells only on which side of the number the result lay.

Experiment [1] addresses T1, 1-acyl-sn-glycerol-3-phosphate acyltransferase beta (Homo sapiens, UniProt O15120).
T1 sequence (O15120 whole entry): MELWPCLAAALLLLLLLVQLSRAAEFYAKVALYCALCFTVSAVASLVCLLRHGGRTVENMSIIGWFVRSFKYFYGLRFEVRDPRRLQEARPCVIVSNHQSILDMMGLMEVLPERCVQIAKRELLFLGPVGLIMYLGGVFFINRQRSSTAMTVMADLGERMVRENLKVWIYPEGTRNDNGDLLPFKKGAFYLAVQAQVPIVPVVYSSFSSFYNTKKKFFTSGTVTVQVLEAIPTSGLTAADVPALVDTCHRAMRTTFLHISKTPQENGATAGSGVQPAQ
Kind of experiment: Inhibitory concentration against human lysophosphatidic acid acyltransferase-beta (LPAAT-beta) expressed in Sf9 insect cell membranes.

The target of experiment [2] is T2, 1-acyl-sn-glycerol-3-phosphate acyltransferase alpha (Homo sapiens) (UniProt Q99943).
T2 sequence (whole entry): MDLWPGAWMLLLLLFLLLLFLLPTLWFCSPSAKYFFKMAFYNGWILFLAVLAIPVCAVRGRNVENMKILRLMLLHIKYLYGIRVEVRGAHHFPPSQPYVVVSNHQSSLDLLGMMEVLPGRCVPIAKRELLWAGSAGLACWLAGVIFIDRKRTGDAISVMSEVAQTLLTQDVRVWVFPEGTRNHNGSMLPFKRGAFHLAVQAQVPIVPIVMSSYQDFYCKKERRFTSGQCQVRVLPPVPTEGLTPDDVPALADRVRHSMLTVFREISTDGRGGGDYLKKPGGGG
The experiment can be described thus: Inhibitory activity against human lysophosphatidic acid acyltransferase-alpha (LPAAT-alpha) expressed in Sf9 insect cell membranes at <20 uM; Not active.

The test system of experiment [3] is DU-145. The experiment can be described thus: In vitro inhibitory concentration of compound against proliferation of DU145 prostate carcinoma cells. The class given is functional, cell-based. The conditions noted are these: Homo sapiens.
Experiment [4] has as its system MCF7. Kind of experiment: In vitro inhibitory concentration of compound against proliferation of MCF-7 breast carcinoma cells. In kind it is functional, cell-based. The conditions noted are these: Homo sapiens.

Usually IC50 stands for the concentration at which inhibition is half-maximal. A low value points to greater potency. Regarding `COC(=O)Nc1ccc(Cl)c(-c2nc3cc(C)ccc3o2)c1`, the half-maximal inhibitory concentration (IC50) in experiment [1] turned out to be 1000 nM. Also, the outcome in experiment [2] was inactive.
For `Cc1ccc2oc(-c3cc(NC=O)ccc3Cl)nc2c1`, in that order: more than 5000 nM and “inactive”.
Taken in the same sequence, the figures for `COC(=O)Nc1ccc(Cl)c(-c2nc3cc(C(F)(F)F)ccc3o2)c1` were 800 nM and “inactive”.
`COC(=O)Nc1ccc(Cl)c(-c2nc3ccccc3o2)c1`: in experiment [2], the outcome was inactive.
`CN(C)CC(=O)Nc1ccc(Cl)c(-c2nc3cc(Cl)ccc3o2)c1` returned an IC50 in experiment [1] of more than 5000 nM. Besides, the outcome in experiment [2] was inactive.
As to `COC(=O)Nc1ccc(Cl)c(-c2nc3cc(Cl)ccc3o2)c1`, in experiment [2], the result was inactive.
Compound `[N-]=[N+]=NCC(=O)Nc1ccc(Cl)c(-c2nc3cc(Cl)ccc3o2)c1` gave an IC50 in experiment [1] of 170 nM. For the same compound, the result in experiment [2] was inactive.
In turn, `COC(=O)Nc1ccc(Cl)c(-c2nc3cc(-c4ccccc4)ccc3o2)c1` registered an IC50 in experiment [1] of 64000 nM. In addition, the outcome in experiment [2] was inactive.
Taken in the same sequence, the figures for `COC(=O)Nc1ccc(Cl)c(-c2nc3c(C)cccc3s2)c1` were 9000 nM and “inactive”.
As to `Cc1ccc2oc(-c3cc(NCCCC#N)ccc3Cl)nc2c1`, the IC50 in experiment [1] is more than 5000 nM.
On to `C#CCOC(=O)Nc1ccc(Cl)c(-c2nc3cc(C(F)(F)F)ccc3o2)c1`, for which the outcome in experiment [2] was inactive.
`CC#CC(=O)Nc1ccc(Cl)c(-c2nc3cc(Cl)ccc3o2)c1` came in with an IC50 in experiment [1] of more than 20000 nM. Further, the outcome in experiment [2] was inactive.
With `C#CCOC(=O)Nc1ccc(Cl)c(-c2nc3cc(Cl)ccc3o2)c1`, the IC50 in experiment [3] was determined as 50000 nM; in experiment [4], 15000 nM. Besides, the result in experiment [2] was inactive.
Regarding `CCC(=O)Nc1ccc(Cl)c(-c2nc3cc(C)ccc3o2)c1`, the results for the concentration for half-maximal inhibition (IC50) in experiment [3], in experiment [4] and in experiment [1] were 40000 nM, 40000 nM and 1500 nM, respectively. Moreover, in experiment [2], the result was inactive.
With `COC(=O)Nc1ccc(Cl)c(-c2nc3ccc(C)cc3n2C)c1`, the IC50 in experiment [1] is more than 20000 nM. Also, in experiment [2], the result was inactive.
For `COC(=O)Nc1ccc(Cl)c(-c2nc3cc(O)ccc3o2)c1`, in that order: more than 20000 nM and “inactive”.
For `COC(=O)Nc1ccc(C)c(-c2nc3cc(Cl)ccc3o2)c1`, in that order: 550 nM and “inactive”.
In the case of `COC(=O)Nc1ccc(C)c(-c2nc3cc(C)ccc3o2)c1`, in experiment [2], the outcome was inactive.
The compound `COC(=O)Nc1ccc(OC)c(-c2nc3cc(C)ccc3o2)c1` gave a 50% inhibitory concentration (IC50) in experiment [1] of 64000 nM. Besides, in experiment [2], the result was inactive.
Taken in the same sequence, the figures for `CCCOC(=O)Nc1ccc(Cl)c(-c2nc3cc(C)ccc3o2)c1` were 12000 nM and “inactive”.
Compound `CCCC(=O)Nc1ccc(Cl)c(-c2nc3cc(C)ccc3o2)c1` had an IC50 in experiment [1] of 2500 nM. Moreover, the result in experiment [2] was inactive.
Taken in the same sequence, the figures for `CC#CCOC(=O)Nc1ccc(Cl)c(-c2nc3cc(Cl)ccc3o2)c1` were 75 nM and “inactive”.
Consider `C#CCOC(=O)Nc1ccc(Cl)c(-c2nc3ccccc3o2)c1`, for which the results for the IC50 in experiment [3] and in experiment [4] were 50000 nM and 20000 nM, respectively. Further, the outcome in experiment [2] was inactive.
In turn, `C#CCOC(=O)Nc1ccc(Cl)c(-c2nc3cc(C(F)(F)F)ccc3n2C)c1` registered an IC50 in experiment [1] of 120 nM. Further, the outcome in experiment [2] was inactive.
With `C#CCOC(=O)Nc1ccc(Cl)c(-c2nc3cc(Cl)ccc3s2)c1`, the IC50 in experiment [3] and in experiment [4] was more than 50000 nM throughout. Further, the outcome in experiment [2] was inactive.
Turning to `C#CCOC(=O)Nc1ccc(Cl)c(-c2nc3c(C)cccc3o2)c1`, the result in experiment [2] was inactive.
For the compound `CCOC(=O)Nc1ccc(Cl)c(-c2nc3cc(C)ccc3o2)c1`, in experiment [1], the IC50 was 1500 nM. Besides, in experiment [2], the outcome was inactive.
For `Cc1ccc(NC(=O)CC#N)cc1-c1nc2ccccc2s1`, in that order: 70 nM and “inactive”.
For the compound `C#CCCC(=O)Nc1ccc(Cl)c(-c2nc3cc(Cl)ccc3o2)c1`, the IC50 in experiment [1] amounted to 100 nM. Further, the result in experiment [2] was inactive.
In turn, `COC(=O)Nc1ccc(Cl)c(-c2nc3c(C)cccc3o2)c1` gave an IC50 in experiment [1] of 500 nM. Further, the result in experiment [2] was inactive.
Taken in the same sequence, the figures for `Cc1ccc2oc(-c3cc(NC(=O)CN=[N+]=[N-])ccc3Cl)nc2c1` were 600 nM and “inactive”.
Consider `C#CCNC(=O)Nc1ccc(Cl)c(-c2nc3cc(Cl)ccc3o2)c1`, for which the IC50 in experiment [1] came out at 100 nM. In experiment [2], the result was inactive.
Taken in the same sequence, the figures for `COC(=O)Nc1ccc(Cl)c(-c2nc3cc(Cl)ccc3n2C)c1` were 650 nM and “inactive”.
For `CNC(=O)Nc1ccc(Cl)c(-c2nc3cc(Cl)ccc3o2)c1`, in that order: 950 nM and “inactive”.
Taken in the same sequence, the figures for `CC(=O)Nc1ccc(Cl)c(-c2nc3cc(C)ccc3o2)c1` were 2500 nM and “inactive”.
On to `Cc1ccc2oc(-c3cc(NC(=O)CC#N)ccc3Cl)nc2c1`, for which, in experiment [1], the IC50 worked out at 100 nM. In addition, the result in experiment [2] was inactive.
On to `C#CCOC(=O)Nc1ccc(Cl)c(-c2nc3cc(C(F)(F)F)ccc3[nH]2)c1`, for which the IC50 in experiment [1] turned out to be 5200 nM. Further, the result in experiment [2] was inactive.
Taken in the same sequence, the figures for `COC(=O)Nc1ccc(Cl)c(-c2nc3cc(C)ccc3n2C)c1` were 11000 nM and “inactive”.
Taken in the same sequence, the figures for `COC(=O)Nc1ccc(Cl)c(-c2nc3ccc(C)cc3o2)c1` were 400 nM and “inactive”.
For `COC(=O)Nc1ccc(Cl)c(-c2nc3ccc(C)cc3s2)c1`, in that order: more than 64000 nM and “inactive”.
In the case of `C#CCOC(=O)Nc1ccc(Cl)c(-c2nc3cc(C)ccc3o2)c1`, the outcome in experiment [2] was inactive.
As for `COC(=O)Nc1ccc(Cl)c(-c2nc3cc(C(=O)O)ccc3o2)c1`, in experiment [1], the IC50 was more than 20000 nM. Moreover, in experiment [2], the result was inactive.
In experiment [1], `C#CCOC(=O)Nc1ccc(Cl)c(-c2nc3cc(O)ccc3o2)c1` gave an IC50 of 2000 nM. Also, the result in experiment [2] was inactive.
`COC(=O)Nc1ccc(Cl)c(-c2nc3cc(C(F)(F)F)ccc3s2)c1`: the result in experiment [2] was inactive.
Consider `Cc1ccc2oc(-c3cc(NC(=O)c4ccccc4)ccc3Cl)nc2c1`, for which the IC50 in experiment [1] was found to be 40000 nM. In experiment [2], the outcome was inactive.
For `CC#CC(=O)Nc1ccc(Cl)c(-c2nc3cc(C)ccc3o2)c1`, in that order: more than 20000 nM and “inactive”.
In the case of `COC(=O)Nc1ccc(F)c(-c2nc3cc(C)ccc3o2)c1`, the IC50 in experiment [1] was more than 64000 nM. For the same compound, the result in experiment [2] was inactive.
For `C=CCOC(=O)Nc1ccc(Cl)c(-c2nc3cc(C)ccc3o2)c1`, in that order: 1400 nM and “inactive”.
For `COC(=O)Nc1cccc(-c2nc3cc(C)ccc3o2)c1`, the IC50 in experiment [1] was more than 64000 nM. Further, in experiment [2], the outcome was inactive.
In experiment [1], `C#CCCC(=O)Nc1ccc(Cl)c(-c2nc3cc(C)ccc3o2)c1` returned an IC50 of 500 nM. Besides, the outcome in experiment [2] was inactive.
For `N#CCC(=O)Nc1ccc(Cl)c(-c2nc3cc(Cl)ccc3o2)c1`, in that order: 27 nM and “inactive”.
For `Cc1ccc2oc(-c3cc(NC(=O)OC(C)C)ccc3Cl)nc2c1`, in that order: 16000 nM and “inactive”.
In experiment [1], `Cc1cc(-c2nc3ccccc3s2)ccc1N` yielded an IC50 of more than 40000 nM.
`C#CCCOC(=O)Nc1ccc(Cl)c(-c2nc3cc(Cl)ccc3o2)c1` gave an IC50 in experiment [1] of 75 nM. Moreover, the result in experiment [2] was inactive.
Consider `CNCC(=O)Nc1ccc(Cl)c(-c2nc3cc(Cl)ccc3o2)c1`, for which the IC50 in experiment [1] was more than 5000 nM. For the same compound, the result in experiment [2] was inactive.
In the case of `COC(=O)Nc1ccc(Cl)c(-c2nc3cc(Cl)ccc3s2)c1`, the outcome in experiment [2] was inactive.
In experiment [1], `Cc1ccc2oc(-c3cc(NC(=O)CO)ccc3Cl)nc2c1` showed a concentration for half-maximal inhibition (IC50) of 31000 nM. Besides, in experiment [2], the outcome was inactive.
As to `C#CCOC(=O)Nc1ccc(Cl)c(-c2nc3cc(Cl)ccc3n2C)c1`, the result in experiment [2] was inactive.
In the case of `N#CCC(=O)Nc1ccc(Cl)c(-c2nc3cc(Cl)ccc3s2)c1`, in experiment [2], the outcome was inactive.
In experiment [1], `Cn1c(-c2cc(NC(=O)CC#N)ccc2Cl)nc2cc(Cl)ccc21` showed an IC50 of 300 nM. Besides, the result in experiment [2] was inactive.
Regarding `N#CCC(=O)Nc1ccc(Cl)c(-c2nc3cc(C(F)(F)F)ccc3s2)c1`, in experiment [1], half-maximal inhibition (IC50) was put at 50 nM. Moreover, in experiment [2], the result was inactive.
Consider `C#CCOC(=O)Nc1ccc(C)c(-c2nc3cc(Cl)ccc3o2)c1`, for which, in experiment [1], the IC50 worked out at 100 nM. The outcome in experiment [2] was inactive.
Regarding `C#CCOC(=O)Nc1ccc(C)c(-c2nc3cc(Cl)ccc3s2)c1`, the midpoint of inhibition in experiment [1], the IC50, lay at 15 nM. The outcome in experiment [2] was inactive.
